The values below come from ChEMBL document CHEMBL1135901, “Molecular dynamics and free energy analyses of cathepsin D-inhibitor interactions: insight into structure-based ligand design” (J Med Chem, 2002).

Where only a bound is given, the exact number is not on record here.

For orientation: Ki means a measure of affinity in units of concentration, obtained from inhibition or displacement. A low value points to a stronger hold on the target.

In this test the target is Cathepsin D (Homo sapiens, UniProt P07339). The test can be described thus: Inhibitory activity of compound against human Cathepsin D.
Chain of Cathepsin D (P07339 65-162 limits assumed): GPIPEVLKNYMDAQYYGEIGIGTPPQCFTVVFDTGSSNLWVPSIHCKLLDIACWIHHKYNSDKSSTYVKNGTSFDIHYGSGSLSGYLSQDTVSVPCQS
Chain of Cathepsin D (P07339 169-412 limits assumed): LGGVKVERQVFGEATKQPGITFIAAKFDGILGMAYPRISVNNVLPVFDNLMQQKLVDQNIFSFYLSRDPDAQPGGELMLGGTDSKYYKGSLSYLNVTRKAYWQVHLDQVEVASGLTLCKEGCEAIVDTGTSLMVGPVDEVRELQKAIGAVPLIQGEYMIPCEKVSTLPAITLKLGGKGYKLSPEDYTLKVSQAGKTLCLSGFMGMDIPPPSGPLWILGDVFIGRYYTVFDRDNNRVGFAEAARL

As to `O=C(/C=C/c1c(Cl)cccc1Cl)N[C@@H](Cc1ccccc1)[C@@H](O)CN(CCc1ccccn1)C(=O)COc1c(Cl)cc(Cl)cc1Cl`, the Ki is greater than 100000 nM.
With `O=C(COc1c(Cl)cc(Cl)cc1Cl)N[C@@H](Cc1ccccc1)[C@@H](O)CN(CCc1ccc2c(c1)OCO2)C(=O)CCN1C(=O)c2ccccc2C1=O` the figure was 73 nM.
The result for `O=C(COc1ccc(Cl)cc1Cl)N[C@@H](Cc1ccccc1)[C@@H](O)CN(CCc1ccc2c(c1)OCO2)C(=O)CCN1C(=O)c2ccccc2C1=O` reads 3 nM.
With `O=C(/C=C/c1c(Cl)cccc1Cl)N[C@@H](Cc1ccccc1)[C@@H](O)CN(CCc1cccs1)C(=O)CCc1ccc(Cl)c(Cl)c1` the figure was roughly 10000 nM; with `COc1cc(Br)c(C(=O)N[C@@H](Cc2ccccc2)[C@@H](O)CN(CCc2ccc(Cl)cc2Cl)C(=O)CCN2C(=O)c3ccccc3C2=O)cc1OC`, 5.2 nM; with `O=C(COc1cc(Cl)c(Cl)cc1Cl)N[C@@H](Cc1ccccc1)[C@H](O)CN(CCc1ccc2c(c1)OCO2)C(=O)CCN1C(=O)c2ccccc2C1=O`, greater than 5000 nM.
